From patent EP4782453A1 (Beyang Therapeutics Co., Ltd., priority 2023, dated 2025) come the findings set out here.

The structures appear in SMILES notation. Where two headings read alike, the source gives them in different places.

Assay [1] deals with T1, Menin-MLL (Homo sapiens, UniProt O00255).
T1 construct: His-Menin (M1-L615 end); purchased BIORTUS BP9210
T1 sequence (O00255 1-615 isoform O00255-1): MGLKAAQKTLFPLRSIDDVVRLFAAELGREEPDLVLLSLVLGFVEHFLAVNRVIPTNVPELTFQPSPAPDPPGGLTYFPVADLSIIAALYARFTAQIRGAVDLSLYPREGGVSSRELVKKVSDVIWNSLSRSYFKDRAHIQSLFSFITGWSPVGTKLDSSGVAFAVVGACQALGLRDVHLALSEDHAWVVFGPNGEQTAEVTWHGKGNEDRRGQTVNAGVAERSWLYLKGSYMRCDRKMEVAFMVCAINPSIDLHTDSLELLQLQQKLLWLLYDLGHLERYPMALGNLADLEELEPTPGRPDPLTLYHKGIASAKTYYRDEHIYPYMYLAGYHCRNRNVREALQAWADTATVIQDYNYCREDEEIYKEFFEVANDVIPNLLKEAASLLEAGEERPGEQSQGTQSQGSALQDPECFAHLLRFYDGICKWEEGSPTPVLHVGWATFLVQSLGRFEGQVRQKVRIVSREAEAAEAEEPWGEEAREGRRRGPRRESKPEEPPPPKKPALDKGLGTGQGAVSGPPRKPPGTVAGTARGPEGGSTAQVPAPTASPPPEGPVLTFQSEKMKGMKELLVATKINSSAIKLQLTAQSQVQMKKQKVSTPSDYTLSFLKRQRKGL
Kind of assay: Inhibitory activity against Menin-MLL binding (fluorescence polarization). The settings on record: 150 nM His-Menin, 15 nM FITC-MLL, 25°C for 60 min. The procedure, abridged: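 Fluorescence polarization competition: compound and 150 nM His-tagged menin (residues M1-L615) sit 15 min at 25 °C in pH 7.5 HEPES buffer with NaCl, DTT and BSA; 15 nM FITC-labelled MLL peptide then binds for 60 min. IC50 fitted sigmoidally from mP values, duplicate wells.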

Assay [2] concerns MOLM-13 (carrying MLL-AF9). Kind of assay: Inhibition of proliferation of human tumor cells (Alamar Blue, 7 days), MOLM-13. The assay is classed as cell-based. The settings on record: Homo sapiens, MOLM-13 cells (carrying MLL-AF9), method calls the value GI50. An excerpt: Experimental Example 2: Evaluation of Inhibitory Activity of Compounds Against Proliferation of Human Tumor Cells
• Human acute lymphoblastic leukemia cells MV-4-11, purchased from American Type Culture Collection, Catalog Number: CRL-9591; • Human acute myeloid leukemia cells MOLM-13, purchased from COBIOER BIOSCIENCES CO., LTD, Catalog Number: CBP60678; • Human acute myeloid leukemia cells KG-1a, purchased from American Type Culture Collection, Catalog Number: CCL-246.1; • Inverted Microscope, purchased from Olympus Tokyo; • Countess™ Automated Cell Counter, purchased from Invitrogen, Model: C10281; and • Multilabel Reader, purchased from Bio-Tek, Model: Synergy HT.
MV-4-11 cells were cultured in an IMDM medium containing 10% fetal bovine serum, KG-a cells were cultured in an IMDM medium containing 20% fetal bovine serum, or MOLM-13 cells were cultured in an RPMI-1640 medium containing 20% fetal bovine serum, each supplemented with 100 U·mL^-1 penicillin and 100 µg·mL^-1 streptomycin. These cells were cultured at 37°C with 5% CO2. The suspensions of individual cell lines were prepared in their respective media and seeded into 96-well plates at a density of 4,000 cells/well for MV-4-11 and MOLM-13 cells, or 3,000 cells/well for KG-1a cells. On the day of the experiment, a compound stock solution was diluted in a 3-fold or 4-fold gradient using DMSO. Each gradient-diluted stock solution was then further diluted 250-fold with a complete medium to prepare a series of working solutions at different concentrations. Subsequently, 100 µL of working solution (containing a 2-fold concentration series of the test compound) was added to each well, with duplicate wells set up for each concentration.
Seven days after compound addition (on Day 7), an Alamar Blue assay reagent (MCE, HY-111391 / CS-0040317) was added to measure the fluorescence intensity in each well. Wells containing the cells in the growth medium supplemented with 0.1% DMSO (Day 7) served as high-read control wells. The readouts from the wells containing the cells in the growth medium supplemented with 0.1% DMSO on the day of compound addition (Day 0) served as low-reading control well. GraphPad Prism software was used to calculate the concentration required to inhibit 50% of cell proliferation (GI50), which serves as a cell proliferation inhibition activity index.

[3] abbreviates: fluorescence polarization, read-out: Menin-MLL IC50.
The mark [4] stands for this setting: Menin-MLL IC50, fluorescence polarization.

Regarding `Cc1ncc2c(-c3ccc(F)cc3C(=O)N(C)C(C)C)cc(C3CN([C@H](CCCN4CCN(CCO)CC4)C(C)C)C3)cn12` [Example 448-2], the IC50 in assay [1] (setting [3]) is 2.2 nM; in assay [2] (MOLM-13, 168 h) it was 13 nM.
Consider `CCN(C(=O)c1cc(F)ccc1-c1cc(C2CN([C@H](CCCN3CCC(OC)CC3)C(C)C)C2)cc2c1cnn2C)C(C)C` [Example 399-2, N-ethyl-5-fluoro-2-(6-{1-[(3R)-6-(4-methoxypiperidin-1-yl)-2-methylhexan-3-yl]azacyclobutan-3-yl}-1-methyl-1H-indazol-4-yl)-N-(isopropyl)benzamide], for which the figures for the IC50 in assay [1] (setting [3]) and in assay [2] (168 h) were 3.3 nM and 25 nM, respectively.
The like results for `CCN(C(=O)c1cc(F)ccc1-c1cc(C2CN([C@H](CCCN3CCN(C[C@H](O)CO)CC3)C(C)C)C2)cc2c1cnn2C)C(C)C` [Example 412] were, in that order, 6.8 nM and 39 nM.
For `CCN(C(=O)c1cc(F)ccc1-c1cc(C2CN([C@H](CCCN3CCN(C)[C@@H](CO)C3)C(C)C)C2)cn2c(C)ncc12)C(C)C` [Example 506] the same measures were 0.9 nM and 13 nM.
On to `COC[C@@H]1CN(CCC[C@H](C(C)C)N2CC(c3cc(-c4ccc(F)cc4C(=O)N(C(C)C)C(C)C)c4cnc(C)n4c3)C2)CCN1` [Example 505-2], for which the half-maximal inhibitory concentration (IC50) in assay [1] (setting [3]) is 1 nM; in assay [2] (168 h) it was 9.9 nM.
The like results for `Cc1nc(F)c2c(-c3ccc(F)cc3C(=O)N3CCOC[C@H]3C)cc(C3CN(C(CC[C@H]4COCCN4)C(C)C)C3)cn12` (stereo partly drawn) [Example 373, (3R)-4-{5-fluoro-2-[1-fluoro-3-methyl-6-(1-{4-methyl-1-[(3S)-morpholin-3-yl]pentan-3-yl}azacyclobutan-3-yl)imidazo[1,5-a]pyridin-8-yl]benzoyl}-3-methylmorpholine] were, in that order, 6.4 nM and 6 nM.
`CCN(C(=O)c1cc(F)ccc1-c1cc(C2CN([C@H](CCCN3CCN(C)[C@H](CO)C3)C(C)C)C2)cn2c(C)ncc12)C(C)C` [Example 507]: the IC50 in assay [1] (setting [3]) was determined as 1 nM; in assay [2] (168 h), 15 nM.
The like results for `Cc1nc(F)c2c(-c3ccc(F)cc3C(=O)N3CCOC[C@H]3C)cc(C3CN([C@H](CCCN4CC5CC(C4)N5C)C(C)C)C3)cn12` [Example 349] were, in that order, 4 nM and 16.5 nM.
For the molecule `Cc1nc(F)c2c(-c3ccc(F)cc3C(=O)N3CCOC[C@H]3C)cc(C3CN([C@H](CCCN4CCN(CC(F)F)CC4)C(C)C)C3)cn12` [Example 362], the IC50 in assay [1] (setting [4]) is 4.6 nM; in assay [2] (MOLM-13, 168 h), 2.8 nM.
With `Cc1ncc2c(-c3ccc(F)cc3C(=O)N3CCOC[C@H]3C)cc(C3CN([C@H](CCCN4CCN(CC(F)(F)F)CC4)C(C)C)C3)cn12` [Example 385], the results for the IC50 in assay [1] (setting [3]) and in assay [2] (168 h) were 4.7 nM and 8.1 nM, respectively.
Take `CCN(C(=O)c1cc(F)ccc1-c1cc(C2CN([C@H](CCCN3CCN[C@@H](COC)C3)C(C)C)C2)cn2c(C)ncc12)C(C)C` [Example 502]: the IC50 in assay [1] (setting [3]) was 0.9 nM; in assay [2] (168 h), 9.8 nM.
Regarding `CCN(C(=O)c1cc(F)ccc1-c1cc(C2CN([C@H](CCCN3CCN(CCC#N)CC3)C(C)C)C2)cn2c(C)ncc12)C(C)C` [Example 489], the IC50 in assay [1] (setting [3]) turned out to be 2 nM; in assay [2] (168 h), 5.9 nM.
For `CCN(C(=O)c1cc(F)ccc1-c1cc(C2CN(C(CC3COCCO3)C(C)C)C2)cn2c(C)ncc12)C(C)C` (stereo not shown) [Example 445, 2-(6-{1-[1-(1,4-dioxane-2-yl)-3-methylbutan-2-yl]azacyclobutan-3-yl}-3-methylimidazo[1,5-a]pyridin-8-yl)-N-ethyl-5-fluoro-N-(isopropyl)benzamide] the same measures were 20 nM and 68 nM.
For `CCN(C(=O)c1cc(F)ccc1-c1cc(C2CN([C@H](CCCN3CCN(C4(CO)COC4)CC3)C(C)C)C2)cn2c(C)ncc12)C(C)C` [Example 474, N-ethyl-5-fluoro-2-(6-{1-[(3R)-6-{4-[3-(hydroxymethyl)oxacyclobutan-3-yl]piperazin-1-yl}-2-methylhexan-3-yl]azacyclobutan-3yl}-3-methylimidazo[1,5-a]pyridin-8-yl)-N-(isopropyl)benzamide], the IC50 was 0.9 nM in assay [1] (setting [4]) and 11 nM in assay [2] (MOLM-13, 168 h).
Regarding `CCN(C(=O)c1cc(F)ccc1-c1cc(C2CN([C@H](CCCN3C4COCC3C4)C(C)C)C2)cc2c1cnn2C)C(C)C` [Example 426], the values for the IC50 in assay [1] (setting [3]) and in assay [2] (168 h) were 3.2 nM and 30 nM, respectively.
The like results for `CCN(C(=O)c1cc(F)ccc1-c1cc(C2CN([C@H](CCCN3CCO[C@@H](CO)C3)C(C)C)C2)cn2c(C)ncc12)C(C)C` [Example 451] were, in that order, 4.7 nM and 25 nM.
Regarding `CC(=O)N1CC2(CN(CCC[C@H](C(C)C)N3CC(c4cc(-c5ccc(F)cc5C(=O)N5CCOC[C@H]5C)c5c(F)nc(C)n5c4)C3)C2)C1` [Example 370, 1-{6-[(4R)-4-[3-(1-fluoro-8-{4-fluoro-2-[(3R)-3-methylmorpholin-4-carbonyl]phenyl}-3-methylimidazo[1,5-a]pyridin-6-yl)azacyclobutan-1-yl]-5-methylhexyl]-2,6-diazaspiro[3.3]heptan-2-yl}ethan-1-one], the IC50 worked out at 3.8 nM in assay [1] (setting [3]) and 4.2 nM in assay [2] (168 h).
With `CCN(C(=O)c1cc(F)ccc1-c1cc(C2CN(C(CCCN3CCNC(CC#N)C3)C(C)C)C2)cn2c(C)ncc12)C(C)C` (stereo not shown) [Example 498], the IC50 turned out to be 2.8 nM in assay [1] (setting [4]) and 23 nM in assay [2] (MOLM-13, 168 h).
For `COCCN(C(=O)c1cc(F)ccc1-c1cc(C2CN([C@H](CCCN3C[C@H]4C[C@@H]3CO4)C(C)C)C2)cn2c(C)ncc12)C(C)C` [Example 467-1, 5-fluoro-N-(2-methoxyethyl)-2-(3-methyl-6-{1-[(3R)-2-methyl-6-[(1R,4R)-2-oxa-5-azadicyclo[2.2.1]heptan-5-yl]hexan-3-yl]azacyclobutan-3-yl}imidazo[1,5-a]pyridin-8-yl)-N-(isopropyl)benzamide] the same measures were 1.5 nM and 23 nM.
Turning to `CCN(C(=O)c1cc(F)ccc1-c1cc(C2CN([C@H](CN3CCN(C[C@@H](O)CO)CC3)C(C)C)C2)cn2c(C)ncc12)C(C)C` [Example 429], the figures for the 50% inhibitory concentration (IC50) in assay [1] (setting [3]) and in assay [2] (168 h) were 2.6 nM and 25 nM, respectively.
For `CCN(C(=O)c1cc(F)ccc1-c1cc(C2CN([C@H](CCCN3CCN(C[C@@H](O)CO)CC3)C(C)C)C2)cc2c1cnn2C)C(C)C` [Example 413] the same measures were 6.9 nM and 45 nM.
The like results for `CCN(C(=O)c1cc(F)ccc1-c1cc(C2CN([C@H](CCCN3CCN(CC(=O)N(C)C)CC3)C(C)C)C2)cn2c(C)ncc12)C(C)C` [Example 473] were, in that order, 1.1 nM and 16 nM.
For `CCN(C(=O)c1cc(F)ccc1-c1cc(C2CN([C@H](CCCN3CCN(C(CO)CO)CC3)C(C)C)C2)cc2c1cnn2C)C(C)C` [Example 433, 2-(6-{1-[(3R)-6-[4-(1,3-dihydroxylpropan-2-yl)piperazin-1-yl]-2-methylhexan-3-yl]azacyclobutan-3-yl}-1-methyl-1H-indazol-4-yl)N-ethyl-5-fluoro-N-(isopropyl)benzamide] the same measures were 3.3 nM and 18 nM.
